Data: patent US8748395B2, “Cell-permeable peptide inhibitors of the JNK signal transduction pathway” (Xigen Inflammation Ltd., priority 2006, dated 2014)
Square brackets hold non-standard residues; d marks the D form. Peptide text beside a SMILES is read from it.

Test system: cortical neuronal culture
Assay: LDH release from cortical neuronal cultures following NMDA stimulation
Format: cell-based, rat
Settings: 5 μM peptide, 30 min pre-treatment, 12 h of 100 μM NMDA
Method: The neuroprotective effect of the D-TAT-IB (generic)(s)/D-JNKI1 peptide (SEQ ID NO: 12) was evaluated in sister cultures pre-treated for 30 min with the indicated concentrations of peptides or MK-801 before continuous exposure to 100 μM NMDA.
Cortical neuronal culture. We dissected small pieces of cortex from the brains of two day old rat pups, incubated them with 200 units of papain for 30 min at 34° C., and then plated the neurons at densities of approximately 1×10^6 cells/plate on dishes pre-coated with 100 μg/ml poly-D-lysine. The plating medium consisted of B27/Neurobasal (Life Technologies, Gaithersburg, Md.) supplemented with 0.5 mM glutamine, 100 U/ml penicillin and 100 ug/ml streptomycin.
Lactate dehydrogenate (LDH) cytotoxicity assay. LDH released into the bathing medium 12, 24 and 48 h after NMDA administration was measured using the Cytotox 96 non- radioactive cytotoxicity assay kit (PROMEGA®, WI) (see FIG. 5).

**Q.** Which “degenerative changes due to NMDA exposure (LDH release above controls)” value does the source give for `CC(C)C[C@@H](NC(=O)[C@@H](Cc1ccccc1)NC(=O)[C@H]1CCCN1C(=O)[C@@H](CCC(N)=O)NC(=O)[C@H](NC(=O)[C@H]1CCCN1C(=O)[C@@H](CCCNC(=N)N)NC(=O)[C@@H](CO)NC(=O)[C@@H](CCC(N)=O)NC(=O)[C@H](N)CC(=O)O)C(C)C)C(=O)N[C@H](CC(N)=O)C(=O)N[C@H](CC(C)C)C(=O)N[C@@H](C(=O)N[C@@H](C(=O)N1CCC[C@@H]1C(=O)N[C@H](CCCNC(=N)N)C(=O)N[C@H](CCCCN)C(=O)N1CCC[C@@H]1C(=O)N[C@H](CCCNC(=N)N)C(=O)N1CCC[C@@H]1C(=O)N1CCC[C@@H]1C(=O)N[C@H](CCCNC(=N)N)C(=O)N[C@H](CCCNC(=N)N)C(=O)N[C@H](CCCNC(=N)N)C(=O)N[C@H](CCC(N)=O)C(=O)N[C@H](CCCNC(=N)N)C(=O)N[C@H](CCCNC(=N)N)C(=O)N[C@H](CCCCN)C(=O)N[C@H](CCCCN)C(=O)N[C@H](CCCNC(=N)N)C(=O)NCC(=O)O)[C@H](C)O)[C@H](C)O` [D-TAT-IB1(s)] (H-[dD][dQ][dS][dR][dP][dV][dQ][dP][dF][dL][dN][dL][dT][dT][dP][dR][dK][dP][dR][dP][dP][dR][dR][dR][dQ][dR][dR][dK][dK][dR]G-OH) here?
**A.** degenerative changes due to NMDA exposure were completely inhibited
